Patent US20260167627A1, “NEW SOLID FORMS OF (3R)-N-[2-CYANO-4-FLUORO-3-(3-METHYL-4-OXO-QUINAZOLIN-6-YL)OXY-PHENYL]-3-FLUORO-PYRROLIDINE-1-SULFONAMIDE” (Hoffmann-La Roche Inc., priority 2023, published 2026)

What was measured:
[1] = cited from earlier work
[2] = Thermodynamic stability of the solid form; format: physicochemical
[3] = Moisture sorption/desorption (DVS), hygroscopicity; format: physicochemical
Description: Moisture sorption/desorption data was collected on a DVS Advantage, a DVS Adventure, or a DVS Intrinsic (SMS Surface Measurements Systems) moisture balance system. The sorption/desorption isotherms were measured stepwise in a range from 0%-RH to 90%-RH at typically 25° C. A weight change of typically <0.001%/min was chosen as criterion to switch to the next level of relative humidity (with a maximum equilibration time of typically 24 hours, if the weight change criterion was not met). The data were corrected for the initial moisture content of the samples by taking the weight after drying of the samples at 0%-RH as zero point.
The hygroscopicity of a given substance was characterized (by close analogy with the European Pharmacopoeia) by the increase in mass when the relative humidity was raised from 0%-RH to 90%-RH:
European Pharmacopoeia-8″ Edition (2014), Chapter 5.11.

[4] = Thermogravimetric analysis (TGA); format: physicochemical; conditions: heating rate 5 K/min under nitrogen, FIG. 3
Description: Thermogravimetric analyses (TGA) were performed on a Mettler-Toledo™ thermogravimetric analyzer (TGA/DSC1 or TGA/DSC3+). System suitability tests were performed with Hydranal as reference substance and calibrations using Aluminum and Indium as reference substances. For the thermogravimetric analyses, approx. 5 to 15 mg (about 7.197 mg of Form B) of sample were placed in aluminum pans, accurately weighed and hermetically closed with perforation lids. Prior to measurement, the lids were automatically pierced resulting in approx. 0.5 mm pin holes. The samples were then heated under a flow of nitrogen of about 50 mL/min using a heating rate of 5 K/min to a maximum temperature of typically 350° C.

## CC(C)(C)c1nc(-c2cccc(NS(=O)(=O)c3c(F)cccc3F)c2F)c(-c2ccnc(N)n2)s1 [Dabrafenib]
[1]
  brain permeability: very poor

## COC(=O)N[C@@H](C)CNc1nccc(-c2cn(C(C)C)nc2-c2cc(Cl)cc(NS(C)(=O)=O)c2F)n1 [Encorafenib]
[1]
  brain permeability: very poor

## Cn1cnc2ccc(Oc3c(F)ccc(NS(=O)(=O)N4CC[C@@H](F)C4)c3C#N)cc2c1=O [Form B, (3R)—N-[2-cyano-4-fluoro-3-(3-methyl-4-oxo-quinazolin-6-yl)oxy-phenyl]-3-fluoro-pyrrolidine-1-sulfonamide]
[2]
  thermodynamic stability of solid form: thermodynamically stable form
[3]; 0%-RH to 90%-RH
  water uptake according to European Pharmacopeia: < 0.2%
[3]; relative humidity raised from 0%-RH to 90%-RH, typically 25° C.
  hygroscopicity class: non-hygroscopic (weight increase Dm < 0.2%)
[4]
  mass loss (TGA): 0.087%

## CCCS(=O)(=O)Nc1ccc(F)c(C(=O)c2c[nH]c3ncc(-c4ccc(Cl)cc4)cc23)c1F [Vemurafenib]
[1]
  brain permeability: very poor
